Assay results from patent EP2730577A1, “CRYSTAL MODIFICATION OF A PARA-METHOXYANILIDE OF 6-HYDROXY-4-OXO-2,4,DIHYDRO-1H-PYRROLO[3,2,1-IJ]-QUINOLINE-5-CARBOXYLIC ACID” (Otkrytoe Aktsionernoe Obschestvo Mezhdunarodnaya, priority 2012, dated 2013).

Assays:
white rats [1] = assay: Diuretic effect (urinary excretion) in rats after oral administration; type: in vivo; conditions: for Diuresis after 5 hr.: 10 mg/kg orally as a fine suspension in water stabilized with Tween-80, after water load, urine excreted over 5 hrs, control 4.3 ± 0.20 ml, 10 mg/kg; for Diuretic effect: 5 hr, relative to control = 100, 10 mg/kg
Method: Example 6. Diuretic effect of the novel crystal modification (β-form) of 6-hydroxy-4-oxo-2,4-dihydro-1H-pyrrolo[3,2,1-ij]-quinoline-5-carboxylic acid para-metoxyanilide compared to the effect of the known crystal modification (α-form) of the same compound was studied on white rats weighing 180 - 200 g
(12 animals per each compound) using a standard technique. All tested animals received water via a gastric tube at 5 ml per […] of body weight. The control group received the same amount of water with Tween 80. The tested substances were administered orally at 10 mg/kg (median effective dose of the known α-form) as a fine suspension in water stabilized with Tween-80. After that, the tested animals were placed into "exchange cages". The urinary excretion intensity was determined by the amount of urine excreted by the animals over a period of 5 hrs. The experimental data shown in Table 9 leads to a conclusion that the diuretic action of the novel crystal modification (β-form) of 6-hydroxy-4-oxo-2,4-dihydro-1H-pyrrolo[3,2,1-ij]-quinoline-5-carboxylic acid para-metoxyanilide exceeds that of the known α-form by an average of 19%.

white rats [2] = conditions: diuretic effect, oral; stated for the known α-form without data of its own; cited from earlier work

Structure (SMILES)	Diuresis after 5 hr. (white rats [1])	Diuretic effect (white rats [1]; 10 mg/kg orally)	diuretic action exceeds that of the known α-form (white rats [1]; 10 mg/kg orally, 5 hrs, β-form versus α-form, average)	median effective dose (white rats [2])
COc1ccc(NC(=O)c2c(O)c3cccc4c3n(c2=O)CC4)cc1 [Novel β-form, 6-hydroxy-4-oxo-2,4-dihydro-1H-pyrrolo[3,2,1-ij]-quinoline-5-carboxylic acid para-metoxyanilide]	10.5 ± 0.27 mL	245%	19%	–
COc1ccc(NC(=O)c2c(O)c3cccc4c3n(c2=O)CC4)cc1 [Known α-form, 6-hydroxy-4-oxo-2,4-dihydro-1H-pyrrolo[3,2,1-ij]-quinoline-5-carboxylic acid para-metoxyanilide]	9.7 ± 0.28 mL	226%	–	10 mg/kg
